Results on three molecules are retold here after patent publication US9295665B2, “Inhibition of neovascularization by simultaneous inhibition of prostanoid IP and EP4 receptors” (ALLERGAN, INC., priority 2013, dated 2016).

The EC50 is the midpoint of the concentration-response curve.

Molecules are shown by their SMILES.

The target in assay [1] is T1, IP receptor (Homo sapiens, UniProt P43119). Kind of assay: Cellular Dielectric Spectroscopy (impedance) in human retinal microvascular endothelial cells, IP agonist. Conditions: HRMECs, normalized to PGE2 at 10 μM; read-out: EC50, change in impedance. More on the design: TNFα-stimulated human macrophages, obtained from individual donors; endogenous in cells; host or cells: TNFα-stimulated human macrophages from individual donors. Type of assay: cell-based. As to the method:
Cellular dielectric spectroscopy, as known in the art, was employed to determine EC50 levels for EP4 agonist and IP agonist in human retinal microvascular endothelial cells (HRMECs). […].
Cellular Dielectric Spectroscopy (CDS) is a label-free technology to measure the changes in impedance of cells in response to receptor stimulation. HRMEC cells were seeded at on 96 well plates (CDS plates) coated with fibronectin and incubated for 24 hrs at 37° C., 5% CO2. On the day of the experiment, the culture medium was replaced by HBSS, BSA 1% and incubated for 1 h at 28° C. Compounds were then added and the signal was monitored for 10 minutes at 28° C. Compounds were tested at the following final concentrations in assay buffer containing 0.1% DMSO: 1E-12, 1E-11, 1E-10, 1E-9, 1E-8, 1E-7, 1E-6, and 1E-5M. The background signal (buffer only) was systematically subtracted to the signal in order to determine the specific signal. The effect of EP4 agonist Formula V and IP agonist Cicaprost were normalized to the signal of the positive control PGE2 at 10 μM. All data were generated in duplicate.

Assay [2] has as its target T1, IP receptor. Kind of assay: VEGF secretion in TNFα-stimulated human macrophages (IP agonist / IP antagonist).
Procedure: (§1) Histogram ordering (both panels, left to right): No stimulus; vehicle; 0.1 nM; 1 nM; 10 nM; 100 nM; 1000 nM of agonist.
Assay [3] addresses EP4 receptor (Homo sapiens, UniProt P35408). As to the kind of experiment: VEGF secretion in TNFα-stimulated human macrophages (EP4 agonist / EP4 antagonist). Conditions: 100 nM PGE2, TNFα-stimulated human macrophages from individual donors, 1, 3, 10 μM antagonist, n=3.
Procedure: as §1

T1 sequence (P43119 whole entry): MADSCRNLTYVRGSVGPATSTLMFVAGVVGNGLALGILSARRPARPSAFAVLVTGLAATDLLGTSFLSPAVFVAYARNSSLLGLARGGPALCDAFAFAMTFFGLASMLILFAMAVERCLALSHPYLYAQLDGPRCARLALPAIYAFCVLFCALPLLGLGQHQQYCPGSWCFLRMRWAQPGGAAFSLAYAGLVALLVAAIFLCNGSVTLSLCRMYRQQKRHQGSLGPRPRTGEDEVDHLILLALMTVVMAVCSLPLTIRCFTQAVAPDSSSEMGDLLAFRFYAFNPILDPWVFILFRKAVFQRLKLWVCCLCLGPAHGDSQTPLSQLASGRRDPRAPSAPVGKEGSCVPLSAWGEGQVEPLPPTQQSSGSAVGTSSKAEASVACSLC
Sequence of EP4 receptor (P35408 whole entry): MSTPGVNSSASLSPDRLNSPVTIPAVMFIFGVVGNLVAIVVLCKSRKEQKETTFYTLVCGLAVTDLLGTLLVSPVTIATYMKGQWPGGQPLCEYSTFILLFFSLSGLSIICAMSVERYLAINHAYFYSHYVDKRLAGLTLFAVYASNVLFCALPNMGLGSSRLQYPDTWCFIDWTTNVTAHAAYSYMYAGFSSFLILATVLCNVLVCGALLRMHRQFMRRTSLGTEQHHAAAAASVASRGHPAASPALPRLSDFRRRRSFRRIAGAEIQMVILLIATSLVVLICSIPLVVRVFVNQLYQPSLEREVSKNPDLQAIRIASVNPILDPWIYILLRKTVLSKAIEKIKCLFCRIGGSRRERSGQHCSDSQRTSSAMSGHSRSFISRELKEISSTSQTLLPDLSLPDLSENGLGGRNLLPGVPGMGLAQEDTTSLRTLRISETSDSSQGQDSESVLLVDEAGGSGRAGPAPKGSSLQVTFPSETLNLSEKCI

In the case of `CCC#CC[C@H](C)[C@H](O)C#C[C@@H]1[C@H]2C/C(=C/COCC(=O)O)C[C@H]2C[C@H]1O` [Cicaprost, cicaprost], the EC50 in assay [1] stood at 18 nM; in assay [2] it was 2.3 nM.

For the molecule `CCOc1c2c(c(OCC)c3ccccc13)C(=O)N(c1ccc(CC(=O)NS(=O)(=O)c3ccccc3)cc1)C2` [Formula IV], the “Inhibition of PGE2-induced VEGF secretion” value in assay [3] is on record as “dose dependently inhibiting”.

Regarding `CC(C)Oc1ccc(Cc2ccc(NC3=NCCN3)cc2)cc1` [Formula I], the “Inhibition of Cicaprost-induced VEGF secretion” value in assay [2] (100 nM Cicaprost, TNFα-stimulated human macrophages from individual donors, 1, 3, 10 μM antagonist, n=2) was “dose dependently inhibiting”.
